Experimental data: ChEMBL document CHEMBL3988442, “University of Dundee, Small-Polar-MMV Screening Library” (2021)

Assays:
[1] = microbe, parasite or virus in culture; details: Mycobacterium tuberculosis, 96 h, read-out: pIC50 (converted)
[2] = microbe, parasite or virus in culture; details: Mycobacterium tuberculosis, 72 h, read-out: pIC50 (converted)

Structure (SMILES) | IC50 [1] [µM] | IC50 [2] [µM]
Cc1ccc(C(C)NC(=O)Nc2nccn(C)c2=O)o1 (stereo unspecified) | > 501 | > 501
O=C(c1cn(-c2ccccc2)nn1)N1CCOCC(O)C1 (stereo unspecified) | > 50.1 | > 50.1
CC(C)(C)OC(=O)N1CC2(CCC(CN)O2)C1 (stereo unspecified) | 263 | 231
O=C(c1ccnn1COc1ccc(Cl)cc1)N1CCCC1 | > 50.1 | > 50.1
COCCNc1nc(-c2ccc(S(N)(=O)=O)cc2)cs1 | > 501 | 207
NCc1nc(C(F)F)no1 | > 501 | 289
CC(C)C(C)(C#N)NC(=O)CNc1cccc(F)c1 (stereo unspecified) | 292 | 307
CC1CN(CCCOc2ccc(C#N)cc2)CCN1 (stereo unspecified) | 390 | > 501
Cc1ccc2[nH]c(C(=O)N3CCN(C)CC3)cc2c1 | 316 | 384
CC(=O)N1CCN(Cc2cc(Br)c3c(c2)OCO3)CC1 | 394 | > 501
CN(C)S(=O)(=O)NCC(O)c1ccc(Cl)c(F)c1 (stereo unspecified) | > 501 | 131
COc1ccccc1N1CCC(N)C1 (stereo unspecified) | 64.3 | 30.5
CC(C)C1CN(C(=O)c2ccccc2)CCS1 (stereo unspecified) | 12.6 | 8.62
O=C1CCC2(CCN(Cc3cscn3)CC2)CN1CCCO | > 50.1 | > 50.1
Cc1cccc(CN(CC(N)=O)Cc2ccccn2)c1 | > 501 | 194
CCCn1nnc(NC(=O)c2ccccc2F)n1 | > 501 | 59.9
CC(N)Cc1nc(-c2ccccc2)no1 (stereo unspecified) | 115 | 173
OC(CN1CCCSCC1)c1ccc(F)cc1 (stereo unspecified) | > 501 | > 501
COc1ccc(C)cc1CCN | 277 | 272
O=C(c1ccco1)N1CCCN(Cc2cscn2)CC1 | > 501 | > 501
O=C(c1ccno1)N1CCCC(c2ncncc2-c2ccncc2)C1 (stereo unspecified) | > 50.1 | > 50.1
Cc1nc2c(c(N3CCC(CCn4cccn4)CC3)n1)CCNCC2 | > 50.1 | > 50.1
Cc1ccc(CNc2ccccc2-n2ccc(C)n2)nc1 | 24.5 | > 50.1
CN1CCN(C(=O)Cn2ccc3ccc(Br)cc32)CC1 | 173 | 132
Cc1ccc(C(N)=O)cc1NCC(C)C | > 501 | > 501
Cc1ccc(NC(=O)Cn2ccnc2)cc1 | 171 | 159
CCC(C)Oc1ccc(CNCCNS(C)(=O)=O)cc1Cl (stereo unspecified) | > 50.1 | > 50.1

Structure (SMILES) | IC50 [1] [µM] | IC50 [2] [µM]
NCc1nc(-c2ccc(OC(F)(F)F)cc2)no1 | 190 | 70.7
COc1ccc(-c2noc(CN3CCN(c4cnccn4)CC3)n2)cc1 | 33.8 | 47
COCC(C)Nc1cccc(F)c1C#N (stereo unspecified) | > 501 | > 501
c1nsnc1-c1nc(C2CCCO2)no1 (stereo unspecified) | > 501 | 118
CC1CCN(S(=O)(=O)NC(C)Cc2ccco2)CC1 (stereo unspecified) | > 50.1 | > 50.1
CCN1C[C@@H]2[C@@H](OC)CCN(C(=O)Cc3ccsc3)[C@@H]2C1 | > 50.1 | > 50.1
O=C(NCc1ccc(Br)o1)[C@@H]1CCCO1 | > 501 | 242
COc1cccc(Cl)c1CN1CCCNCC1 | 251 | 228
Nc1nnc(SCc2coc(-c3ccccc3)n2)[nH]1 | > 501 | > 501
CCc1cn[nH]c1C1CCN(c2cc(C)c3cccc(OC)c3n2)CC1 | > 50.1 | 22.2
CN(C)S(=O)(=O)N(CCO)Cc1ccc(Cl)c(Cl)c1 | 308 | 216
O=C(NCC1(CO)CC1)OCc1ccccc1 | 149 | 149
CN(CCn1cnnc1)c1ccc2ccc(F)cc2n1 | 259 | 212
COc1ccccc1OCC(C)CN (stereo unspecified) | 123 | 82.9
CC(C)Nc1nc(N2CCCC2)nc2c1CN(C(C)C)CC2 | 15.8 | 26.5
Cn1cnc2c1CCN(c1ccnc(-c3ccccc3)n1)C2 | 38.1 | 15.6
CC(N)c1nc(-c2ccc(Br)cc2)c[nH]1 (stereo unspecified) | 242 | 99.7
CCn1nc(C)cc1C(=O)Nc1ccnc(N(C)C)n1 | > 501 | 96.2
CC(C)c1cccc(S(=O)(=O)NCCCN)c1 | > 501 | 195
CC(CNC(=O)c1ccon1)Oc1cccc(Br)c1 (stereo unspecified) | 32.6 | 25.7
c1ccc2oc(NC3CCCN(Cc4noc(C5CC5)n4)C3)nc2c1 (stereo unspecified) | 13.5 | 24.9
CCOCc1cnc2n1CCN(C(=O)Cc1ccccn1)C2C (stereo unspecified) | > 50.1 | > 50.1
COc1ncc(CN2CCOC(Cc3cccc4ccccc34)C2)cn1 (stereo unspecified) | > 50.1 | > 50.1
CCc1nc(C#N)c(NCc2ccc3c(c2)OCO3)o1 | 205 | 105
CNC(=O)NCCc1csc2ccccc12 | > 50.1 | > 50.1
O=S(=O)(NCCNc1ccc(-n2cccc2)nn1)c1ccccc1 | 16.5 | 15.5
